Experimental findings from patent US9765018B2, “IDO inhibitors” (BRISTOL-MYERS SQUIBB COMPANY, priority 2013, dated 2017) are described below.

Experiment [1] addresses Human IDO1 (Homo sapiens (Human), UniProt P14902). The experiment in a line: IDO Kynurenine Assay with Human IDO1/HEK293 Cells. As to conditions: HEK293 cells with human IDO1; read-out: HEK human IDO-1 (IC50). The experiment is classed as cell-based. How it is done: IDO Kynurenine Assay with Human IDO1/HEK293 Cells
Human IDO1/HEK293 cells were seeded at 10,000 cells per 50 uL per well with RPMI/phenol red free media contains 10% FBS in a 384-well black wall clear bottom tissue culture plate (Matrix Technologies LLC) 125 nL of certain concentration of compound was then added to each well using ECHO liquid handling systems. The cells were incubated for 20 hours in 37° C. incubator with 5% CO2.
The compound treatments were stopped by adding Trichloroacetic Acid (Sigma-Aldrich) to a final concentration at 0.2%. The cell plate was further incubated at 50° C. for 30 minute. The equal volume supernatant (20 uL) and 0.2% (w/v) Ehrlich reagent (4-dimethylaminobenzaldehyde, Sigma-Aldrich) in glacial acetic acid were mixed in a new clear bottom 384-well plate. This plate was then incubated at room temperature for 30 minute. The absorbance at 490 nm was measured on Envision plate reader.

In experiment [2] the target is T1, IDO (Homo sapiens (Human), UniProt P14902). Kind of experiment: Kynurenine assay in IFN-γ-stimulated Hela cells. It counts as cell-based. As to conditions: 20 h, read-out: Hela Kyurenine (IC50). Put shortly:
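Hela cells adhered 5-6 h, then received inhibitor (top dose 30 μM, 3-fold dilutions to 1.5 nM) plus 100 ng/mL human IFN-γ to induce IDO, 20 h at 37° C. TCA added, 30 min at 50° C hydrolyses N-formylkynurenine to kynurenine. Supernatant mixed with Ehrlich reagent, 10 min RT, absorbance 490 nm.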

In experiment [3] the target is T1, IDO. Kind of experiment: LLE_IDO_ABS_DR (IDO assay, method not described).

T1 sequence (P14902 whole entry): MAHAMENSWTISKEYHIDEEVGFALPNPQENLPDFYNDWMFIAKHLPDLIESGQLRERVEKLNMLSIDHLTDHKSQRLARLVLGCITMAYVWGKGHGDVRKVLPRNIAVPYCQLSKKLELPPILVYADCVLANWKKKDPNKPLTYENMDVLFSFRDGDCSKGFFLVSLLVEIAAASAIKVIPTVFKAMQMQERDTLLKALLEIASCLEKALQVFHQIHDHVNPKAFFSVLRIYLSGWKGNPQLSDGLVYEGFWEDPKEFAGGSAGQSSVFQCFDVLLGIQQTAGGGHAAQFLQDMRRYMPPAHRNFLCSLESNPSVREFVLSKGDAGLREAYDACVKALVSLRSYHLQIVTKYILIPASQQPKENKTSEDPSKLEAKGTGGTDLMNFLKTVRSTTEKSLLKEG
Chain of Human IDO1 (P14902 whole entry): as above

Usually IC50 stands for the concentration needed to halve the response being measured. For `Cc1ccc(NC(=O)Nc2cc(-c3ccccc3C(=O)O)ccc2Oc2ccccc2C(C)(C)C)cc1` [Example 2, 4′-(2-tert-Butylphenoxy)-3′-(3-p-tolylureido)biphenyl-2-carboxylic acid], the results for the IC50 in experiment [1], in experiment [2] and in experiment [3] were 560 nM, 60 nM and 70 nM, respectively.

`CCOc1ccc(-c2ccc(Oc3ccccc3C(C)(C)C)c(NC(=O)Nc3ccc(C)cc3)c2)cc1C(=O)O` [Example 5, 4′-(2-tert-Butylphenoxy)-4-ethoxy-3′-(3-p-tolylureido)biphenyl-3-carboxylic acid]: the IC50 in experiment [1] stood at 1830 nM; in experiment [2], 120 nM; in experiment [3] it was 1010 nM.

With `COc1ccc(-c2ccc(Oc3ccccc3C(C)(C)C)c(NC(=O)Nc3ccc(C)cc3)c2)cc1NS(=O)(=O)C(F)(F)F` [Example 7, N-(4′-(2-tert-Butylphenoxy)-4-methoxy-3′-(3-p-tolylureido)biphenyl-3-yl)-1,1,1-trifluoromethanesulfonamide], the concentration for half-maximal inhibition (IC50) in experiment [1] amounted to 750 nM; in experiment [2] it was 110 nM; in experiment [3], 320 nM.

Take `CCCOc1c(CCCC(F)(F)F)cc(-c2ccccc2-c2nnn[nH]2)cc1NC(=O)Nc1ccc(C)cc1` [Example 31, 1-(4-Propoxy-2′-(1H-tetrazol-5-yl)-5-(4,4,4-trifluorobutyl)-[1,1′-biphenyl]-3-yl)-3-(p-tolyl)urea]: the IC50 was 20 nM in experiment [1] and 40 nM in experiment [3].

With `CCCOc1c(C/C=C/C(F)(F)F)cc(-c2ccccc2-c2nnn[nH]2)cc1NC(=O)Nc1ccc(C)cc1` [Example 32, (E)-1-(4-Propoxy-2′-(1H-tetrazol-5-yl)-5-(4,4,4-trifluorobut-2-en-1-yl)-[1,1′-biphenyl]-3-yl)-3-(p-tolyl)urea], the half-inhibitory concentration (IC50) was determined as 10 nM in experiment [1] and 9.47 nM in experiment [3].

As for `CCCOc1c(CCCc2ccccc2)cc(-c2ccccc2C(=O)O)cc1NC(=O)Nc1ccc(C)cc1` [Example 36, 3′-(3-Phenylpropyl)-4′-propoxy-5′-(3-p-tolylureido)biphenyl-2-carboxylic acid], the IC50 in experiment [1] came to 20 nM; in experiment [3], 30 nM.

Consider `COc1ccc(-c2ccc(Oc3ccccc3C(C)(C)C)c(NC(=O)Nc3ccccc3Cl)c2)cc1C(=O)O` [Example 42, 4′-(2-tert-butylphenoxy)-3′-(3-(2-chlorophenyl)ureido)-4-methoxybiphenyl-3-carboxylic acid], for which the results for the concentration for half-maximal inhibition (IC50) in experiment [1], in experiment [2] and in experiment [3] were 620 nM, 90 nM and 340 nM, respectively.

Regarding `COc1ccc(-c2ccc(Oc3ccccc3C(C)(C)C)c(NC(=O)Nc3ccccc3C(F)(F)F)c2)cc1C(=O)O` [Example 46, 4′-(2-tert-butylphenoxy)-4-methoxy-3′-(3-(2-(trifluoromethyl)phenyl)ureido)biphenyl-3-carboxylic acid], the IC50 is 540 nM in experiment [1], 50 nM in experiment [2] and 320 nM in experiment [3].

On to `COc1ccc(-c2ccc(Oc3ccccc3C(C)C)c(NC(=O)Nc3ccc(C)cc3)c2)cc1C(=O)O` [Example 63, 4′-(2-isopropylphenoxy)-4-methoxy-3′-(3-p-tolylureido)biphenyl-3-carboxylic acid], for which the figures for the IC50 in experiment [1], in experiment [2] and in experiment [3] were 1600 nM, 390 nM and 1610 nM, respectively.

Regarding `COc1ccc(-c2ccc(Oc3ccccc3C)c(NC(=O)Nc3ccc(C)cc3)c2)cc1C(=O)O` [Example 73, 4-methoxy-4′-(o-tolyloxy)-3′-(3-p-tolylureido)biphenyl-3-carboxylic acid], the IC50 in experiment [1] came out at 2970 nM; in experiment [2], 840 nM; in experiment [3], 1570 nM.

In the case of `CCCc1ccccc1Oc1ccc(-c2ccc(OC)c(C(=O)O)c2)cc1NC(=O)Nc1ccc(C)cc1` [Example 77, 4-methoxy-4′-(2-propylphenoxy)-3′-(3-p-tolylureido)biphenyl-3-carboxylic acid], the figures for the IC50 in experiment [1], in experiment [2] and in experiment [3] were 2330 nM, 330 nM and 780 nM, respectively.

With `COc1ccc(-c2ccc(Oc3ccccc3C(C)(C)C)c(NC(=O)Nc3ccccc3F)c2)cc1C(=O)O` [Example 79, 4′-(2-(tert-butyl)phenoxy)-3′-(3-(2-fluorophenyl)ureido)-4-methoxy-[1,1′-biphenyl]-3-carboxylic acid], the IC50 amounted to 420 nM in experiment [1], 60 nM in experiment [2] and 130 nM in experiment [3].

On to `COc1ccc(-c2ccc(Oc3ccccc3C(C)(C)C)c(NC(=O)Nc3ccc(Cl)cc3Cl)c2)cc1C(=O)O` [Example 103, 4′-(2-(tert-butyl)phenoxy)-3′-(3-(2,4-dichlorophenyl)ureido)-4-methoxy-[1,1′-biphenyl]-3-carboxylic acid], for which the IC50 turned out to be 1310 nM in experiment [1], 90 nM in experiment [2] and 470 nM in experiment [3].

`COc1ccc(-c2ccc(Oc3cccc(C(C)(C)C)c3)c(NC(=O)Nc3ccc(C)cc3)c2)cc1C(=O)O` [Example 113, 4′-(3-tert-butylphenoxy)-4-methoxy-3′-(3-p-tolylureido)biphenyl-3-carboxylic acid]: the values for the concentration for half-maximal inhibition (IC50) in experiment [1], in experiment [2] and in experiment [3] were 1660 nM, 690 nM and 880 nM, respectively.

Consider `CCCOc1c(Br)cc(-c2ccccc2-c2nnn[nH]2)cc1NC(=O)Nc1ccc(C)cc1` [Example 283], for which the concentration for half-maximal inhibition (IC50) in experiment [1] was determined as 60 nM; in experiment [3], 30 nM.

For `CC/C=C/Cc1cc(-c2ccccc2-c2nnn[nH]2)cc(NC(=O)Nc2ccccc2F)c1OCCC` [Example 284], the IC50 in experiment [1] was found to be 6.49 nM; in experiment [3] it was 5.56 nM.

On to `CCCC(CCC)Oc1c(Br)cc(-c2ccccc2-c2nnn[nH]2)cc1NC(=O)Nc1ccccc1F` [Example 287], for which the IC50 in experiment [1] turned out to be 4.49 nM; in experiment [3] it was 3.25 nM.

Take `CCCCCc1cc(-c2ccccc2-c2nnn[nH]2)cc(NC(=O)Nc2ccccc2F)c1OCCC` [Example 289]: the concentration for half-maximal inhibition (IC50) in experiment [1] was determined as 50 nM; in experiment [3] it was 9.83 nM.

For the compound `CCCOc1c(NC(=O)Nc2ccc(C)cc2)cc(-c2ccccc2-c2nnn[nH]2)cc1C(CC)c1ccccc1` (stereo not shown) [Example 298], the half-maximal inhibitory concentration (IC50) in experiment [1] and in experiment [3] was 30 nM throughout.

Regarding `CCCC(Oc1ccc(-c2ccccc2-c2nnn[nH]2)cc1NC(=O)Nc1ccc(C)cc1)c1ccccc1Cl` (stereo not shown) [Example 313], the concentration for half-maximal inhibition (IC50) in experiment [1] amounted to 610 nM; in experiment [3] it was 90 nM.

Regarding `O=C(Nc1ccc(C2CC2)cc1)Nc1cc(-c2ccccc2-c2nnn[nH]2)cc(CC2CC2)c1OCCC(F)(F)F` [Example 316], the concentration for half-maximal inhibition (IC50) in experiment [1] and in experiment [3] was 40 nM in each case.

For `O=C(Nc1ccc(OC(F)(F)F)cc1)Nc1cc(-c2ccccc2-c2nnn[nH]2)cc(CC2CC2)c1OCCC(F)(F)F` [Example 319], the half-inhibitory concentration (IC50) in experiment [1] amounted to 90 nM; in experiment [3], 50 nM.

Regarding `O=C(Nc1ccc(OC(F)(F)F)cc1)Nc1cc(-c2ccccc2-c2nnn[nH]2)cc(CC2CC2)c1OCC1CC1` [Example 321], the IC50 in experiment [1] is 30 nM; in experiment [3], 10 nM.

With `Cc1cccc(NC(=O)Nc2cc(-c3ccccc3-c3nnn[nH]3)cc(CC3CC3)c2Oc2ccccc2)c1` [Example 323], the IC50 turned out to be 60 nM in experiment [1] and 40 nM in experiment [3].

Consider `CCCOc1c(NC(=O)Nc2ccc(C)cc2)cc(-c2ccccc2-c2nnn[nH]2)cc1C(CC)CCCc1ccccc1` (stereo not shown) [compound 297], for which the IC50 in experiment [1] came out at 90 nM; in experiment [3], 50 nM.
